This passage reports IC50 results from patent publication US20240317721A1, “PYRAZOLYL DERIVATIVES AS INHIBITORS OF THE KRAS MUTANT PROTEIN” (NOVARTIS AG, priority 2021, published 2024).

Some results are limits rather than exact numbers.

The test deals with KRasG12C (M1-K169, biotinylated on the N-terminus) (Homo sapiens (Human), UniProt P01116, G12C). As to the kind of experiment: Covalent competition assay: scintillation proximity assay (SPA) quantifying covalent modification of KRASG12C. It counts as binding. The settings on record: competition with radiolabeled covalent probe (Compound B/Compound A), 2 hours incubation, 10 nM KRasG12C. The gist of the method:
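Test compounds compete with a radiolabeled covalent probe for modification of N-terminally biotinylated KRasG12C(M1-K169):GDP, final 10 nM protein, 25 nM radio-ligand, 475 nM unlabelled ligand, 2 h with agitation in 20 mM Tris-HCl pH 7.5, 150 mM NaCl, 0.1 mM MgCl2, 0.01% Tween-20.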
A general note: In a scintillation proximity assay essentially only radioactivity close to the scintillant gives light.
Consider `C=CC(=O)N1CC2(CC(n3nc(N4CC[C@@H](CN5CCO[C@@H](C(N)=O)C5)CC4(C)C)c(-c4c(Cl)c(Cl)cc5[nH]ncc45)c3C)C2)C1` (single isomer, unassigned) [Example 271a], for which the IC50 (commonly the point on the concentration scale where inhibition reaches its midpoint) was over 5 µM.

With `C=CC(=O)N1CC2(CC(n3nc(N4C5CCC4CN(C(C)=O)C5)c(-c4c(Cl)c(C)cc5[nH]ncc45)c3C)C2)C1` (single isomer, unassigned) [Example 57b, 1-(6-(3-(3-acetyl-3,8-diazabicyclo[3.2.1]octan-8-yl)-4-(5-chloro-6-methyl-1H-indazol-4-yl)-5-methyl-1H-pyrazol-1-yl)-2-azaspiro[3.3]heptan-2-yl)prop-2-en-1-one], the IC50 was 0.216 µM.

Turning to `C=CC(=O)N1CC2(CC(n3nc(N4CCN(C5COC5)C[C@@]4(C)COC)c(-c4c(Cl)c(C)cc5[nH]ncc45)c3C)C2)C1` (single isomer, unassigned) [Example 148b], the IC50 was 0.295 µM.

Take `C=CC(=O)N1CC2(CC(n3nc(N4CCN(C5COC5)CC45CCC5)c(-c4c(Cl)c(Cl)cc5[nH]ncc45)c3C)C2)C1` (single isomer, unassigned) [Example 72a]: the IC50 was found to be 3.1 µM.

As to `C=CC(=O)N1CC2(CC(n3nc(N4CCN(C[C@H]5COCCO5)CC45CCC5)c(-c4c(Cl)c(C)cc5[nH]ncc45)c3C)C2)C1` (single isomer, unassigned) [Example 189a], the IC50 was over 5 µM.

For the molecule `C=CC(=O)N1CC2(CC(n3nc(N4CC[C@@H](CN5CC6(COCCN6C)C5)CC4(C)C)c(-c4c(Cl)c(Cl)cc5[nH]ncc45)c3C)C2)C1` (single isomer, unassigned) [Example 291a], the IC50 is over 5 µM.

On to `C=CC(=O)N1CC2(CC(n3nc(N4CCN(C[C@@H]5COCCO5)C[C@]4(C)CC)c(-c4c(Cl)c(C)cc5[nH]ncc45)c3C)C2)C1C` (single isomer, unassigned) [Example 199b], for which the IC50 worked out at 0.037 µM.

For `C=CC(=O)N1CC2(CC(n3nc(N4CCN(C[C@@H]5COCCO5)CC45CCC5)c(-c4c(Cl)c(C)cc5[nH]ncc45)c3C)C2)C1` (single isomer, unassigned) [Example 169a], the IC50 is over 5 µM.

Regarding `C=CC(=O)N1CC2(CC(n3nc(N4CC[C@@H](CN5CC6(CCN(C(C)=O)C6)C5)CC4(C)C)c(-c4c(Cl)c(Cl)cc5[nH]ncc45)c3C)C2)C1` (single isomer, unassigned) [Example 268b], the IC50 turned out to be 0.007 µM.

As for `C=CC(=O)N1CC2(CC(n3nc(N4CC[C@@H](CN5CCN6C(=O)N(C)CC6C5)CC4(C)C)c(-c4c(Cl)c(Cl)cc5[nH]ncc45)c3C)C2)C1` (single isomer, unassigned) [Example 263b], the IC50 is 0.008 µM.

In the case of `C=CC(=O)N1CC2(CC(n3nc(N4CCC(N5CC(OC)C5)CC4(C)C)c(-c4c(Cl)c(Cl)cc5[nH]ncc45)c3C)C2)C1` (single isomer, unassigned) [Example 209a, 1-(6-(4-(5,6-dichloro-1H-indazol-4-yl)-3-(4-(3-methoxyazetidin-1-yl)-2,2-dimethylpiperidin-1-yl)-5-methyl-1H-pyrazol-1-yl)-2-azaspiro[3.3]heptan-2-yl)prop-2-en-1-one], the IC50 came to 1.1 µM.

Consider `C=CC(=O)N1CC2(CC(n3nc(N4CCN(C5COC5)C[C@]4(C)CCOC)c(-c4c(Cl)c(C)cc5[nH]ncc45)c3C)C2)C1` (single isomer, unassigned) [Example 86b], for which the IC50 worked out at 0.008 µM.

On to `C=CC(=O)N1CC2(CC(n3nc(N4CCN(C(C)=O)CC4(C)C)c(-c4c(Cl)c(C)cc5[nH]ncc45)c3C)C2)C1` (single isomer, unassigned) [Example 18b, 1-(6-(3-(4-acetyl-2,2-dimethylpiperazin-1-yl)-4-(5-chloro-6-methyl-1H-indazol-4-yl)-5-methyl-1H-pyrazol-1-yl)-2-azaspiro[3.3]heptan-2-yl)prop-2-en-1-one], for which the IC50 came to 0.031 µM.

Turning to `C=CC(=O)N1CC2(CC(n3nc(N4CCC5(CN(C6COC6)C5)CC4(C)C)c(-c4c(Cl)c(Cl)cc5[nH]ncc45)c3C)C2)C1` (single isomer, unassigned) [Example 92b, 1-(6-(4-(5,6-dichloro-1H-indazol-4-yl)-3-(6,6-dimethyl-2-(oxetan-3-yl)-2,7-diazaspiro[3.5]nonan-7-yl)-5-methyl-1H-pyrazol-1-yl)-2-azaspiro[3.3]heptan-2-yl)prop-2-en-1-one], the IC50 is 0.007 µM.

For `C=CC(=O)N1CC2(CC(n3nc(N4CC[C@@H](CN5CC6(C5)CN(C)C(=O)N6C)CC4(C)C)c(-c4c(Cl)c(Cl)cc5[nH]ncc45)c3C)C2)C1` (single isomer, unassigned) [Example 296b], the IC50 stood at 0.006 µM.

As for `C=CC(=O)N1CC2(CC(n3nc(N4CC[C@@H](CN5CCN(CCO)C(=O)C5)CC4(C)C)c(-c4c(Cl)c(Cl)cc5[nH]ncc45)c3C)C2)C1` (single isomer, unassigned) [Example 251a], the IC50 is over 5 µM.

Regarding `Cc1cc2[nH]ncc2c(-c2c(N3CCN(C4COC4)CC34CCC4)nn(C3CC4(C3)CN(C(=O)/C=C/CF)C4)c2C)c1Cl` (single isomer, unassigned) [Example 113b, (E)-1-(6-(4-(5-chloro-6-methyl-1H-indazol-4-yl)-5-methyl-3-(8-(oxetan-3-yl)-5,8-diazaspiro[3.5]nonan-5-yl)-1H-pyrazol-1-yl)-2-azaspiro[3.3]heptan-2-yl)-4-fluorobut-2-en-1-one], the IC50 was determined as 0.105 µM.

With `C=CC(=O)N1CC2(CC(n3nc(N4C[C@@H]5C[C@H]4CN5C(C)=O)c(-c4c(Cl)c(C)cc5[nH]ncc45)c3C)C2)C1` [Example 6, 1-(6-(3-((1S,4S)-5-acetyl-2,5-diazabicyclo[2.2.1]heptan-2-yl)-4-(5-chloro-6-methyl-1H-indazol-4-yl)-5-methyl-1H-pyrazol-1-yl)-2-azaspiro[3.3]heptan-2-yl)prop-2-en-1-one], the IC50 was found to be 1 µM.

Take `C=CC(=O)N1CC2(CC(n3nc(N4CCN(C5(C)COC5)CC45CCC5)c(-c4c(Cl)c(C)cc5[nH]ncc45)c3C)C2)C1` (single isomer, unassigned) [Example 191b, 1-(6-(4-(5-Chloro-6-methyl-1H-indazol-4-yl)-5-methyl-3-(8-(3-methyloxetan-3-yl)-5,8-diazaspiro[3.5]nonan-5-yl)-1H-pyrazol-1-yl)-2-azaspiro[3.3]heptan-2-yl)prop-2-en-1-one]: the IC50 was 0.014 µM.

Take `C=CC(=O)N1CC2(CC(n3nc(N4CC[C@@H](CN5CCOC6(C5)CN(C(C)=O)C6)CC4(C)C)c(-c4c(Cl)c(Cl)cc5[nH]ncc45)c3C)C2)C1` (single isomer, unassigned) [Example 311a]: the IC50 was 1.3 µM.

Consider `C=CC(=O)N1CC2(CC(n3nc(N4CCCCC45CN(C(C)=O)C5)c(-c4c(Cl)c(C)cc5[nH]ncc45)c3C)C2)C1` (single isomer, unassigned) [Example 66a, 1-(6-(3-(2-acetyl-2,5-diazaspiro[3.5]nonan-5-yl)-4-(5-chloro-6-methyl-1H-indazol-4-yl)-5-methyl-1H-pyrazol-1-yl)-2-azaspiro[3.3]heptan-2-yl)prop-2-en-1-one], for which the IC50 is over 50 µM.

With `C=CC(=O)N1CC2(CC(n3nc(N4CCC(N5CC6COCC(C5)O6)CC4(C)C)c(-c4c(Cl)c(C)cc5[nH]ncc45)c3C)C2)C1` (single isomer, unassigned) [Example 119b, 1-(6-(3-(4-(3,9-dioxa-7-azabicyclo[3.3.1]nonan-7-yl)-2,2-dimethylpiperidin-1-yl)-4-(5-chloro-6-methyl-1H-indazol-4-yl)-5-methyl-1H-pyrazol-1-yl)-2-azaspiro[3.3]heptan-2-yl)prop-2-en-1-one], the IC50 was 0.036 µM.

Consider `C=CC(=O)N1CC2(CC(n3nc(N4CCC(N5C6CCC5COC6)CC4(C)C)c(-c4c(Cl)c(C)cc5[nH]ncc45)c3C)C2)C1` (single isomer, unassigned) [Example 75b], for which the IC50 came out at 0.228 µM.

For `C=CC(=O)N1CC2(CC(n3nc(N4CCCc5c(cnn5C)C4)c(-c4c(Cl)c(C)cc5[nH]ncc45)c3C)C2)C1` (single isomer, unassigned) [Example 43b, 1-(6-(4-(5-chloro-6-methyl-1H-indazol-4-yl)-5-methyl-3-(1-methyl-4,6,7,8-tetrahydropyrazolo[4,3-c]azepin-5(1H)-yl)-1H-pyrazol-1-yl)-2-azaspiro[3.3]heptan-2-yl)prop-2-en-1-one], the IC50 was determined as 0.758 µM.

With `C=CC(=O)N1CC2(CC(n3nc(N4CCN(C5CCOCC5)CC4(C)C)c(-c4c(Cl)c(C)cc5[nH]ncc45)c3C)C2)C1` (single isomer, unassigned) [Example 134a, 1-(6-(4-(5-chloro-6-methyl-1H-indazol-4-yl)-3-(2,2-dimethyl-4-(tetrahydro-2H-pyran-4-yl)piperazin-1-yl)-5-methyl-1H-pyrazol-1-yl)-2-azaspiro[3.3]heptan-2-yl)prop-2-en-1-one], the IC50 was over 5 µM.

Consider `C=CC(=O)N1CC2(CC(n3nc(N4CC[C@@H](CN5CC6OCCN(C)C6C5)CC4(C)C)c(-c4c(Cl)c(Cl)cc5[nH]ncc45)c3C)C2)C1` (single isomer, unassigned) [Example 259b, 1-(6-(4-(5,6-dichloro-1H-indazol-4-yl)-3-((R)-2,2-dimethyl-4-(((4aR*,7aS*)-4-methylhexahydropyrrolo[3,4-b][1,4]oxazin-6(2H)-yl)methyl)piperidin-1-yl)-5-methyl-1H-pyrazol-1-yl)-2-azaspiro[3.3]heptan-2-yl)prop-2-en-1-one], for which the IC50 was 0.01 µM.

On to `C=CC(=O)N1CC2(CC(n3nc(N4CC[C@@H](CN5C[C@@H]6C[C@H]5CS6(=O)=O)CC4(C)C)c(-c4c(Cl)c(Cl)cc5[nH]ncc45)c3C)C2)C1` (single isomer, unassigned) [Example 249a], for which the IC50 was over 5 µM.
